pIC50: −log10 of the molar value.
Columns and labels:
[1] = system: Spontaneous Hypertensive Rats (SHR); test: Hypotensive activity in spontaneous hypertensive rats (SHR); type: in vivo, Male SHR (Okamoto) rats; details: Rattus norvegicus, po, p.o. in 0.4% carboxymethyl cellulose, systolic arterial pressure, read-out: Hypotensive activity in SHR ED^SABP -25%
Experimental: Hypotensive Activity in Spontaneous Hypertensive Rats (SHR)
Male SHR (Okamoto), of 70-100 days of age were used. The systolic arterial pressure (SABP) was determined by applying to the tail of the animal a pressure transducer with a sleeve connected to a BP-Recorder (W-W Electronic of Basel). The animals were previously warmed to 39° C. for a period of 15-20 minutes in a ventilated chamber.
The rats were previously trained to the registration for 1-2 days prior to the start of the experiment which consisted of a basic registration, the pharmacological treatment and then of subsequent registrations one hour and three hours after the treatment.
All the products were administered orally (p.o.), suspended in 0.4% carboxymethyl cellulose (Methocel); the volume of vehicle was 2 ml per kg.
The compounds of formula (I) were tested at three dose levels and the value of ED-25% was determined.

[2] = system: taenia coli; test: Antagonistic activity to calcium in the taenia coli of guinea pigs (CaCl2-induced contractions, in vitro); type: cell-based, Hartley albino guinea pigs; details: Cavia porcellus, 10 min; guinea pig taenia coli, depolarized, CaCl2 10^-3 M, 10 min contact; from maximum inhibition; read-out: Calcium antagonistic activity in vitro ED50
Experimental: Antagonistic Activity to Calcium in the Taenia Coli of Guinea Pigs
Hartley albino guinea pigs of average weight 450 g were used. The calcium antagonistic activity was determined stimulating the taenia coli, previously depolarized, with a single submaximal concentration of CaCl2 (10^-3 M), at intervals of 20 minutes (according to the method Naunyn Schmied. Arch. Pharmacol. 318, 235 (1982)). The products were left in contact with the preparation for 10 minutes. The ED50 were calculated from the percentage of maximum inhibition.

[3] = in vivo; details: mouse, iv, mice, i.v. in dimethylsulfoxide, after seven days, Litchfield and Wilcoxon
Experimental: Intravenous Toxicity in Mice
Male CD1 mice from Charles River (Italy), weighing 25 g were used. Compounds were administered intravenously (i.v.), dissolved in dimethylsulfoxide, and the volume of administration was 0.01 ml per 10 g of body weight. The LD50 after seven days, was calculated according to the method of Litchfield and Wilcoxon (Experimental Therapeutics 96, 99 (1949)).

SMILES | ED (25%) [1] | pIC50 [2] | LD50 at 168 h [3]
COC(=O)C1=C(C)NC(C)=C(C(=O)OCCN2CCN(c3ccc(C(F)(F)F)cc3)CC2)C1c1cccc([N+](=O)[O-])c1 (stereo not drawn) [0297C, 2-[4-(4-Trifluoromethylphenyl)]piperazinoethyl-2,6-dimethyl-4-(3-nitrophenyl)-5-methoxycarbonyl-1,4-dihydropyridine-3-carboxylate] | 4.4 mg/kg | 7.82 | 73 mg/kg
COC(=O)C1=C(C)NC(C)=C(C(=O)OCCN2CCN(c3cccc(OC)c3)CC2)C1c1cccc([N+](=O)[O-])c1 (stereo not drawn) [0298C, 2-[4-(3-Methoxyphenyl)]piperazinoethyl-2,6-dimethyl-4-(3-nitrophenyl)-5-methoxycarbonyl-1,4-dihydropyridine-3-carboxylate] | 32 mg/kg | 8.12 | 38 mg/kg

From patent publication US4894460A (Pierrel S.p.A., priority 1982, dated 1990)
